Values quoted from earlier work, collected in PubChem BioAssay AID1259409 (Chemical Carcinogenesis Research Information System (CCRIS), 2018).
Where “and” joins values, the source holds several entries; their conditions need not be identical. Identical values can stand only once.

System: rodent chemically induced tumor inhibition, incidence and multiplicity
Assay: CCRIS tumor inhibitor studies

## COc1ccc(O)cc1
Carcinogen: BENZO[A]PYENE, 50-32-8, Dose [Inhibitor]: 0.028 MMOL/G DIET DAILY FOR 6 WK STARTING 14 D PRIOR TO THE FIRST UNTIL 1 D AFTER LAST CARCINOGEN DOSE FOLLOWED BY AN OB, Route [Inhibitor]: ORAL, Species: MOUSE, Strain/Sex: STRAIN-A/FEMALE, Target Tissue: Type of Lesion: LUNG: ADENOMA, Dose [Carcinogen]: 3 MG IN 0.2 ML COTTONSEED OIL GIVEN 3X AT 2 WK INTERVALS, Promoter: NONE USED
  tumour outcome (control, treated, inhibition, significance): 100%, 100%, 0%, not significant
Carcinogen: BENZO[A]PYENE, 50-32-8, Dose [Inhibitor]: 0.028 MMOL/G DIET DAILY STARTING 2 WK AFTER FINAL CARCINOGEN DOSE THROUGH THE END OF THE STUDY (STUDY DURATION: 14 WK), Route [Inhibitor]: ORAL, Species: MOUSE, Strain/Sex: ICR/FEMALE, Target Tissue: Type of Lesion: FORESTOMACH: PAPILLOMA, Dose [Carcinogen]: 1.5 MG IN 0.2 ML CORN OIL GIVEN 2/WK FOR 4 WK, Promoter: NONE USED
  tumour outcome (control, treated, inhibition, significance): 97%, 100%, -3%, not significant
Carcinogen: BENZO[A]PYRENE, 50-32-8, Dose [Inhibitor]: 0, 3.3 UMOL/G DIET BEGINNING 1 WK PRIOR TO CARCINOGEN TREATMENT AND CONTINUING FOR 1 WK POST CARCINOGEN TREATMENT FOLLOW, Route [Inhibitor]: ORAL, Species: MOUSE, Strain/Sex: CD-1/FEMALE, Target Tissue: Type of Lesion: FORESTOMACH: PAPILLOMA, Dose [Carcinogen]: 1 MG IN 0.2 ML CORN OIL 2/WK FOR 4 WK, Promoter: NONE USED
  tumour outcome (control, treated, inhibition, significance): 85%, 46%, 46%, p<0.01
Carcinogen: BENZO[A]PYRENE, 50-32-8, Dose [Inhibitor]: 0.03 MMOL/G OF DIET DAILY STARTING 7 D BEFORE AND CONTINUING THROUGH 3 D AFTER CARCINOGEN TREATMENT FOLLOWED BY OBSERVAT, Route [Inhibitor]: ORAL, Species: MOUSE, Strain/Sex: ICR/FEMALE, Target Tissue: Type of Lesion: FORESTOMACH: NEOPLASM, Dose [Carcinogen]: 1 MG IN 0.2 ML CORN OIL 2/WK FOR 4 WK, Promoter: NONE USED
  tumour outcome (control, treated, inhibition, significance): 100%, 65%, 35%, p 0.053
Carcinogen: BETA-PROPIOLACTONE, 57-57-8, Dose [Inhibitor]: 4.2 MG/G DIET DAILY FOR 14 WK STARTING 12 D PRIOR TO FIRST CARCINOGEN DOSE UNTIL 1 D AFTER LAST CARCINOGEN DOSE FOLLOWED, Route [Inhibitor]: ORAL, Species: MOUSE, Strain/Sex: ICR/FEMALE, Target Tissue: Type of Lesion: FORESTOMACH: PAPILLOMA OR CARCINOMA, Dose [Carcinogen]: 2 MG IN 0.1 ML PROPYLENE GLYCOL 2/WK FOR 12 WK, Promoter: NONE USED
  tumour outcome (control, treated, inhibition, significance): 100%, 41%, 59%, p<0.001
Carcinogen: BETA-PROPIOLACTONE, 57-57-8, Dose [Inhibitor]: 5.2 MG IN 0.1 ML PROPYLENE GLYCOL 2/WK FOR 12 WK GIVEN 1 HR PRIOR TO EACH CARCINOGEN ADMINISTRATION FOLLOWED BY AN OBSER, Route [Inhibitor]: GAVAGE, Species: MOUSE, Strain/Sex: ICR/FEMALE, Target Tissue: Type of Lesion: FORESTOMACH: PAPILLOMA OR CARCINOMA, Dose [Carcinogen]: 2 MG IN 0.1 ML PROPYLENE GLYCOL 2/WK FOR 12 WK, Promoter: NONE USED
  tumour outcome (control, treated, inhibition, significance): 100%, 61%, 39%, p<0.001
Carcinogen: BETA-PROPIOLACTONE, 57-57-8, Dose [Inhibitor]: 5.2 MG IN 0.1 ML PROPYLENE GLYCOL 2/WK FOR 12 WK GIVEN 4 HR PRIOR TO EACH CARCINOGEN ADMINISTRATION FOLLOWED BY AN OBSER, Route [Inhibitor]: GAVAGE, Species: MOUSE, Strain/Sex: ICR/FEMALE, Target Tissue: Type of Lesion: FORESTOMACH: PAPILLOMA OR CARCINOMA, Dose [Carcinogen]: 2 MG IN 0.1 ML PROPYLENE GLYCOL 2/WK FOR 12 WK, Promoter: NONE USED
  tumour outcome (control, treated, inhibition, significance): 97%, 47%, 52%, p<0.001

## COc1ccc2c(c1)CCC(c1ccccc1)=C2c1ccc(OCCN2CCCC2)cc1
Carcinogen: 7,12-DIMETHYLBENZ[A]ANTHRACENE, 57-97-6, Dose [Inhibitor]: 1 MG/KG 3/WK BEGINNING 2 D AFTER DMBA TREATMENT (STUDY DURATION: 5 MO), Route [Inhibitor]: SUBCUTANEOUS, Species: RAT, Strain/Sex: SPRAGUE-DAWLEY/FEMALE, Target Tissue: Type of Lesion: MAMMARY GLAND: ADENOCARCINOMA, FIBROADENOMA, Dose [Carcinogen]: 5 MG IN 0.5 ML CORN OIL AT 50 D OF AGE, Promoter: NONE USED
  tumour outcome (control, treated, inhibition, significance): 56%, 10%, 82%, not calculated and 34%, 1%, 97%, not calculated
Carcinogen: 7,12-DIMETHYLBENZ[A]ANTHRACENE, 57-97-6, Dose [Inhibitor]: 1 MG/KG 3/WK BEGINNING 2 D AFTER DMBA TREATMENT (STUDY DURATION: 5 MO), Route [Inhibitor]: SUBCUTANEOUS, Species: RAT, Strain/Sex: SPRAGUE-DAWLEY/FEMALE, Target Tissue: Type of Lesion: MAMMARY GLAND: ADENOCARCINOMA, FIBROADENOMA, Dose [Carcinogen]: 10 MG IN 0.5 ML CORN OIL AT 50 D OF AGE, Promoter: NONE USED
  tumour outcome (control, treated, inhibition, significance): 58%, 27%, 53%, not calculated and 38%, 10%, 74%, not calculated
Carcinogen: 7,12-DIMETHYLBENZ[A]ANTHRACENE, 57-97-6, Dose [Inhibitor]: 1 MG/KG 3/WK BEGINNING 15 D AFTER DMBA TREATMENT (STUDY DURATION: 5 MO), Route [Inhibitor]: SUBCUTANEOUS, Species: RAT, Strain/Sex: SPRAGUE-DAWLEY/FEMALE, Target Tissue: Type of Lesion: MAMMARY GLAND: ADENOCARCINOMA, FIBROADENOMA, Dose [Carcinogen]: 5 MG IN 0.5 ML CORN OIL AT 50 D OF AGE, Promoter: NONE USED
  tumour outcome (control, treated, inhibition, significance): 56%, 22%, 61%, not calculated and 34%, 5%, 85%, not calculated

## CC(C(=O)O)c1cccc(C(=O)c2ccccc2)c1 (stereo not drawn)
Carcinogen: AZOXYMETHANE, 25843-45-2, Dose [Inhibitor]: 0, 100 PPM IN DIET BEGINNING 1 WK PRIOR TO CARCINOGEN TREATMENT FOR DURATION OF STUDY (STUDY DURATION: 54 WK), Route [Inhibitor]: ORAL, Species: RAT, Strain/Sex: F344/MALE, Target Tissue: Type of Lesion: COLON: ADENOCARCINOMA, Dose [Carcinogen]: 15 MG/KG/BW 1/WK FOR 2 WK, Promoter: NONE USED
  tumour outcome (control, treated, inhibition, significance): 58%, 56%, 3%, not calculated
Carcinogen: AZOXYMETHANE, 25843-45-2, Dose [Inhibitor]: 0, 100 PPM IN DIET BEGINNING 1 WK TO CARCINOGEN TREATMENT FOR DURATION OF STUDY (STUDY DURATION: 54 WK), Route [Inhibitor]: ORAL, Species: RAT, Strain/Sex: F344/MALE, Target Tissue: Type of Lesion: COLON: ADENOMA, Dose [Carcinogen]: 15 MG/KG/BW 1/WK FOR 2 WK, Promoter: NONE USED
  tumour outcome (control, treated, inhibition, significance): 6%, 3%, 50%, not calculated
Carcinogen: AZOXYMETHANE, 25843-45-2, Dose [Inhibitor]: 0, 200 PPM IN DIET BEGINNING 1 WK PRIOR TO CARCINOGEN TREATMENT FOR DURATION OF STUDY (STUDY DURATION: 54 WK), Route [Inhibitor]: ORAL, Species: RAT, Strain/Sex: F344/MALE, Target Tissue: Type of Lesion: COLON: ADENOCARCINOMA, Dose [Carcinogen]: 15 MG/KG/BW 1/WK FOR 2 WK, Promoter: NONE USED
  tumour outcome (control, treated, inhibition, significance): 58%, 28%, 52%, p<0.01
Carcinogen: AZOXYMETHANE, 25843-45-2, Dose [Inhibitor]: 0, 200 PPM IN DIET BEGINNING 1 WK PRIOR TO CARCINOGEN TREATMENT FOR DURATION OF STUDY (STUDY DURATION: 54 WK), Route [Inhibitor]: ORAL, Species: RAT, Strain/Sex: F344/MALE, Target Tissue: Type of Lesion: COLON: ADENOMA, Dose [Carcinogen]: 15 MG/KG/BW 1/WK FOR 2 WK, Promoter: NONE USED
  tumour outcome (control, treated, inhibition, significance): 6%, 6%, 0%, not significant
Carcinogen: N-BUTYL-N-(4-HYDROXYBUTYL)NITROSAMINE, 3817-11-6, Dose [Inhibitor]: 0, 40 MG/KG DIET FOR 24 WK BEGINNING 1 WK PRIOR TO CARCINOGEN TREATMENT (STUDY DURATION: 24 WK), Route [Inhibitor]: ORAL, Species: MOUSE, Strain/Sex: BDF/MALE, Target Tissue: Type of Lesion: URINARY BLADDER: TRANSITIONAL CELL CARCINOMA, Dose [Carcinogen]: 7.5 MG 1/WK FOR 8 WK, Promoter: NONE USED
  tumour outcome (control, treated, inhibition, significance): 22/75 (29%), 5/73 (7%), 76%, p<0.01
Carcinogen: N-BUTYL-N-(4-HYDROXYBUTYL)NITROSAMINE, 3817-11-6, Dose [Inhibitor]: 0, 80 MG/KG DIET FOR 24 WK BEGINNING 1 WK PRIOR TO CARCINOGEN TREATMENT (STUDY DURATION: 24 WK), Route [Inhibitor]: ORAL, Species: MOUSE, Strain/Sex: BDF/MALE, Target Tissue: Type of Lesion: URINARY BLADDER: TRANSITIONAL CELL CARCINOMA, Dose [Carcinogen]: 7.5 MG 1/WK FOR 8 WK, Promoter: NONE USED
  tumour outcome (control, treated, inhibition, significance): 22/75 (29%), 4/72 (6%), 79%, p<0.01

## CCCCC/C=C\C/C=C\CCCCCCCC(=O)O
Carcinogen: BENZO[A]PYRENE, 50-32-8, Dose [Inhibitor]: 0, 0.1 ML IN 0.1 ML OLIVE OIL 4 AND 2 D PRIOR TO CARCINOGEN DOSE (CYCLE REPEATED 4 X) (STUDY DURATION: 23 WK), Route [Inhibitor]: GAVAGE, Species: MOUSE, Strain/Sex: ICR/FEMALE, Target Tissue: Type of Lesion: STOMACH: PAPILLOMA, Dose [Carcinogen]: 2 MG IN 0.2 ML OLIVE OIL 1/WK FOR 4 WK
  tumour outcome (control, treated, inhibition, significance): 100%, 90%, 10%, not calculated

## O=CC[C@@H](O)[C@H](O)[C@H](O)CO
Carcinogen: 1-METHYL-1-NITROSOUREA [684-93-5], Dose [Inhibitor]: 0, 0.02, 0.03% IN DIET 6 D AFTER CARCINOGEN FOR 5 WKS, Route [Inhibitor]: DIET, Species: RAT, Strain/Sex: SPRAGUE-DAWLEY/FEMALE (30,30)/(30,30)/(30,30), Target Tissue: Type of Lesion: MAMMARY GLAND: ADENOCARCINOMA, Dose [Carcinogen]: 50 MG/KG BW AT 21 D OF AGE (STUDY DURATION: 6-7 WKS)
  outcome: 25/30 (83.3%); 15/30 (50%), 40%, p<0.001; 15/30 (50%), 40%, p<0.001
